The subject of data set [1] is Human immunodeficiency virus 1. The data set is described as follows: In vitro antiviral activity against NNRTI-resistant DLVR-IIIB (L100I) HIV-1 variant. It is filed as functional, organism-based. Particulars: Human immunodeficiency virus 1, IIIB.
Data set [2] can be described thus: Pharmacokinetic parameter (tmax ) was evaluated in Spargue-Dawley rat when given peroral at dose 30 mg/kg. It is filed as ADME, organism-based. Also noted: dose 30 mg/kg, route oral. Particulars: Sprague-Dawley, in vivo, po.
For data set [3], the target named is Human immunodeficiency virus type 1 reverse transcriptase (Human immunodeficiency virus 1, UniProt Q72547, L100I). The data set is described as follows: Inhibitory activity against L100I mutant HIV-1 reverse transcriptase.
Data set [4] deals with Human immunodeficiency virus 1. Description: In vitro antiviral activity against NNRTI-resistant R88703R-IIIB (Y181C) HIV-1 variant. It is filed as functional, organism-based. As to conditions: Human immunodeficiency virus 1, IIIB.
For data set [5], the system named is Human immunodeficiency virus 1. Description: In vitro antiviral activity against NNRTI-resistant L-697661R-IIIB (Y181C) HIV-1 variant. Particulars: Human immunodeficiency virus 1, IIIB. It is filed as functional, organism-based.
Data set [6] in a line: Pharmacokinetic parameter (CL/F) was evaluated in Spargue-Dawley rat when given peroral at dose 80 mg/kg. It is filed as ADME, organism-based. Also noted: dose 80 mg/kg, route oral. As to conditions: Sprague-Dawley, in vivo, po.
Data set [7] has as its target Human immunodeficiency virus type 1 reverse transcriptase (Human immunodeficiency virus 1, UniProt Q72547, Y188H). The data set is described as follows: Inhibitory activity against Y188H mutant HIV-1 reverse transcriptase.
Data set [8] can be described thus: Apparent terminal disposition half-life (t1/2 ) was evaluated in Spargue-Dawley rat when given intravenously at dose 15 mg/kg. It is filed as ADME, organism-based. On the set-up: dose 15 mg/kg, route intravenous. Particulars: Sprague-Dawley, in vivo, iv.
The test system of data set [9] is Human immunodeficiency virus 1. The data set is described as follows: In vitro antiviral activity against NNRTI-resistant DLVR-MF (P236L) HIV-1 variant. It is filed as functional, organism-based. Particulars: Human immunodeficiency virus 1, IIIB.
Data set [10] in a line: Pharmacokinetic parameter (CL/F ) was evaluated in Spargue-Dawley rat when given peroral at dose 30 mg/kg. Also noted: dose 30 mg/kg, route oral. As to conditions: Sprague-Dawley, in vivo, po. It is filed as ADME, organism-based.
Data set [11] in a line: Apparent terminal disposition half-life (t1/2 ) was evaluated in Spargue-Dawley rat when given peroral at dose 30 mg/kg. It is filed as ADME, organism-based. Also noted: dose 30 mg/kg, route oral. As to conditions: Sprague-Dawley, in vivo, po.
Data set [12] in a line: Pharmacokinetic parameter (Cmax ) was evaluated in Spargue-Dawley rat when given intravenously at dose 15 mg/kg. On the set-up: dose 15 mg/kg, route intravenous. It is filed as ADME, organism-based. As to conditions: Sprague-Dawley, in vivo, iv.
Data set [13] in a line: Pharmacokinetic parameter (Vss ) was evaluated in Spargue-Dawley rat when given intravenously at dose 15 mg/kg. On the set-up: dose 15 mg/kg, route intravenous. It is filed as ADME, organism-based. As to conditions: Sprague-Dawley, in vivo, iv, read-out: Vss.
The nature of data set [14]: Pharmacokinetic parameter (Cmax ) was evaluated in Spargue-Dawley rat when given peroral at dose 80 mg/kg. It is filed as ADME, organism-based. Also noted: dose 80 mg/kg, route oral. Particulars: Sprague-Dawley, in vivo, po.
A short description of data set [15]: Pharmacokinetic parameter (tmax ) was evaluated in Spargue-Dawley rat when given intravenously at dose 15 mg/kg. It is filed as ADME, organism-based. On the set-up: dose 15 mg/kg, route intravenous. As to conditions: Sprague-Dawley, in vivo, iv.
The target in data set [16] is Human immunodeficiency virus type 1 reverse transcriptase (Human immunodeficiency virus 1, UniProt Q72547). Description: Inhibitory activity against wild type HIV-1 reverse transcriptase (WT-RT).
Data set [17] has as its target Human immunodeficiency virus type 1 reverse transcriptase (Human immunodeficiency virus 1, UniProt Q72547, Y181C). The data set is described as follows: Inhibitory activity against Y181C mutant HIV-1 reverse transcriptase.
The target of data set [18] is Human immunodeficiency virus type 1 reverse transcriptase (Human immunodeficiency virus 1, UniProt Q72547, P236L). Description: Inhibitory activity against P236L mutant HIV-1 reverse transcriptase.
Data set [19] is described as follows: Pharmacokinetic parameter (Absolute oral bioavailability) was evaluated in Spargue-Dawley rat when given peroral at dose 30 mg/kg. It is filed as ADME, organism-based. As to conditions: Sprague-Dawley, in vivo.
Data set [20] in a line: Pharmacokinetic parameter (tmax) was evaluated in Spargue-Dawley rat when given peroral at dose 80 mg/kg. It is filed as ADME, organism-based. Also noted: dose 80 mg/kg, route oral. As to conditions: Sprague-Dawley, in vivo, po.
The nature of data set [21]: Apparent terminal disposition half-life (t1/2) was evaluated in Spargue-Dawley rat when given peroral at dose 80 mg/kg. Also noted: dose 80 mg/kg, route oral. Particulars: Sprague-Dawley, in vivo, po. It is filed as ADME, organism-based.
The nature of data set [22]: Pharmacokinetic parameter (Absolute oral bioavailability) was evaluated in Spargue-Dawley rat when given peroral at dose 80 mg/kg. It is filed as ADME, organism-based. Particulars: Sprague-Dawley, in vivo.
Data set [23] has as its target Human immunodeficiency virus type 1 reverse transcriptase (Human immunodeficiency virus 1, UniProt Q72547, E233V). The data set is described as follows: Inhibitory activity against E233V mutant HIV-1 reverse transcriptase.
In data set [24] the test system is Human immunodeficiency virus 1. Description: In vitro antiviral activity against NNRTI-resistant IIIB (WT) HIV-1 variant. It is filed as functional, organism-based. As to conditions: Human immunodeficiency virus 1, IIIB.
Data set [25] is described as follows: Pharmacokinetic parameter (Cmax ) was evaluated in Spargue-Dawley rat when given peroral at dose 30 mg/kg. It is filed as ADME, organism-based. Also noted: dose 30 mg/kg, route oral. Particulars: Sprague-Dawley, in vivo, po.
Data set [26] relates to Human immunodeficiency virus 1. Description: Inhibition of p24 production in NNRTI-resistant L-697661R-IIIB (Y181C) HIV-1 variant at concentration 3 um. It is filed as functional.
Data set [27] concerns Human immunodeficiency virus 1. Description: Inhibition of p24 production in NNRTI-resistant DLVR-MF (P236L) HIV-1 variant at concentration 0.01 um. It is filed as functional.

As usually defined, the IC50 is the midpoint of a concentration-inhibition curve. A higher IC50 goes with lower potency. Broadly, the Tmax is the time from dosing to the highest level. For orientation: CL/F means clearance divided by bioavailability, as obtained after extravascular dosing. Usually half-life stands for the time in which the quantity being followed falls by half. As a reminder, the Cmax is the maximum level reached in the sampled fluid or tissue. What is called bioavailability is the share of a dose that reaches the circulation, judged against a reference dose that is usually intravenous. High values mean much systemic uptake, low ones little systemic uptake. Consider `C[C@H](Sc1nc(N)cc(Cl)n1)c1cc2ccoc2cn1`, for which the IC50 in data set [1] was 70 nM; in data set [3] it was 39 nM; in data set [4], 170 nM; in data set [5] it was 1100 nM; in data set [7], 77 nM; in [9], 8 nM. For the same compound, the IC50 came to 20 nM in [16]; 179 nM in [17]; 22 nM in [18]; 17 nM in [23]; 1 nM in data set [24]. For the same compound, the Tmax worked out at 1.4 h in data set [2], 1.98 min in data set [15] and 3.8 h in [20]. For the same compound, the CL/F in [6] and in data set [10] was 7.1 mL/min/kg in each case. Further, the half-life in data set [8] was 0.7 h; in data set [11] it was 0.78 h; in data set [21], 1.5 h. Also, the results for the Cmax in data set [12], in data set [14] and in data set [25] were 123 µM, 103 µM and 52 µM, respectively. For the same compound, the Vd in data set [13] was 0.55 L/kg. Further, the bioavailability in data set [19] and in data set [22] was 94% throughout.
Turning to `CCc1cc(NCc2nc3c(Cl)ccc(Cl)c3o2)c(O)nc1C` [L-697661], the IC50 is 4000 nM in [1]; 7700 nM in [4]; > 10000 nM in [5]; 430 nM in data set [9]; 110 nM in [24].
Regarding `CC(Sc1nc(N)cc(Cl)n1)c1cc2ccoc2cn1` (configuration not stated), the IC50 in [1] was determined as 60 nM; in data set [3], 44 nM; in [4], 170 nM; in [5] it was 2400 nM; in data set [7], 55 nM; in data set [9], 10 nM. In addition, the IC50 in data set [16] stood at 24 nM; in [17], 360 nM; in [18], 22 nM; in data set [23] it was 44 nM; in data set [24], 2 nM.
In the case of `CC(C)Nc1cccnc1N1CCN(C(=O)c2cc3cc(NS(C)(=O)=O)ccc3[nH]2)CC1` [DELAVIRDINE], the half-maximal inhibitory concentration (IC50) in [1] was > 10000 nM; in [4], 1000 nM; in data set [9], > 10000 nM; in data set [24], 50 nM.
For the compound `CC(=O)c1ccccc1NC(C(N)=O)c1c(Cl)cccc1Cl` (configuration not stated), the IC50 in data set [1] is 6500 nM; in data set [4] it was > 10000 nM; in data set [5], > 10000 nM; in data set [9], 80 nM; in [24] it was 150 nM.
As usually defined, the Inhibition is the change of the read-out against control, counted positive when it falls. With `C[C@@H](Sc1nc(N)cc(Cl)n1)c1cc2ccoc2cn1`, the IC50 in data set [5] was > 3000 nM; in data set [9], > 10 nM; in [16] it was 85 nM; in [17] it was > 50000 nM; in data set [18], 25 nM. The Inhibition in data set [26] and in data set [27] was 0% each time.

The record behind these values is ChEMBL document CHEMBL1131332, “(-)-6-Chloro-2-[(1-furo[2, 3-c]pyridin-5-ylethyl)thio]-4-pyrimidinamine, PNU-142721, a new broad spectrum HIV-1 non-nucleoside reverse transcriptase inhibitor” (J Med Chem, 1998).
